Reference: ChEMBL document CHEMBL1201862, “PubChem BioAssay data set” (2004)
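Five compound concentrations were applied to cells in 96-well plates for 48 hours; endpoints were derived by simple linear interpolation of the resulting dose-response curve. GI50: concentration for 50% inhibition of growth.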 Calls of active or inactive are those of the source. Rule as the data show it: active = GI50 up to about 1.1 µM and inactive = higher.

Tests used:
Test in all cases: growth of human tumour cells (NCI), 48 h
DLD-1 = tested on: DLD-1
DMS-114 = tested on: DMS-114
HOP-18 = tested on: HOP-18
KM-20L2 = tested on: KM-20L2
M19-MEL = tested on: M19-MEL
SNB-78 = tested on: SNB-78
XF498 = tested on: XF498
T47D = tested on: T47D
RXF 631 = tested on: RXF 631

| Structure (SMILES) | GI50 (DLD-1) | GI50 (DMS-114) | GI50 (KM-20L2) | GI50 (M19-MEL) | GI50 (XF498) | GI50 (T47D) | other results |
| --- | --- | --- | --- | --- | --- | --- | --- |
| N/C(=N\O)N/N=C/c1ccc2c(c1)OCCO2 | 19.7 µM (inactive) | > 28.2 µM (inactive) | 4.13 µM (inactive) | > 33 µM (inactive) | 8.79 µM (inactive) |  | GI50 (HOP-18): 24.2 µM (inactive); GI50 (SNB-78): 57.7 µM (inactive) |
| C/C(=N\NC(=S)Nc1ccc(C(=O)O)cc1)c1ccccn1 | 27.7 µM (inactive) | 23.1 µM (inactive) | 25.8 µM (inactive) | 20.1 µM (inactive) | 26.4 µM (inactive) |  | GI50 (HOP-18): 24.7 µM (inactive); GI50 (SNB-78): > 100 µM (inactive) |
| CCOC(=O)c1cc(-c2ccc(OC)c(OC)c2)cn1C |  |  |  |  |  | > 10 µM (inactive) |  |
| CC(C)(C)[Si](C)(C)OC1(CCc2ccccc2OS(=O)(=O)C(F)(F)F)CCCC=C1COCc1ccccc1 (stereo not drawn) |  |  |  |  |  | 6.35 µM (inactive) |  |
| Cc1cccc(NC(=O)C(=O)C(C(=O)c2ccccc2F)C2OC(=O)c3ccccc32)c1Cl (stereo not drawn) | 27.9 µM (inactive) | 17.5 µM (inactive) | 29.6 µM (inactive) | 22.4 µM (inactive) | 19.7 µM (inactive) |  | GI50 (SNB-78): 32.6 µM (inactive) |
| CC1(c2ccc(F)cc2)C(C#N)C(=O)NC(=O)C1C#N (stereo not drawn) | > 100 µM (inactive) | > 100 µM (inactive) | > 100 µM (inactive) | > 100 µM (inactive) | > 100 µM (inactive) |  | GI50 (RXF 631): > 100 µM (inactive) |
| COC1(OC)C2(Cl)C(Cl)=C(Cl)C1(Cl)C1COCC12 (stereo not drawn) |  |  |  |  |  | > 100 µM (inactive) |  |
| COc1cc(/C=C2\C[C@H]3[C@@H]4CCc5cc(O)ccc5[C@H]4CC[C@]3(C)C2=O)cc(OC)c1OC |  |  |  |  |  | 13.5 µM (inactive) |  |
| CN1C=C(C(N)=O)Cc2ccsc21 | > 100 µM (inactive) | > 100 µM (inactive) | > 100 µM (inactive) | > 100 µM (inactive) |  |  | GI50 (HOP-18): > 100 µM (inactive); GI50 (SNB-78): > 100 µM (inactive) |
| CC(=O)Nc1cc2c3c(c1)CCCN3CCC2 |  |  |  |  |  | 44.6 µM (inactive) |  |
| COc1ccc(NC(C)=O)cc1N1C(=O)/C(=C\c2cc(OC)c(OC)c(OC)c2)S(=O)(=O)C1c1ccccc1 (stereo not drawn) |  |  |  |  |  | 38.3 µM (inactive) |  |
| CCOC(=O)Nc1ccc(S(=O)(=O)OC)cc1.CCOC(=O)Nc1ccc(S(=O)(=O)OC)cc1.Cc1cn(C2CC(O)C(CO)O2)c(=O)[nH]c1=O | 45.5 µM (inactive) | 69.7 µM (inactive) | > 100 µM (inactive) | 49.8 µM (inactive) |  |  | GI50 (HOP-18): > 100 µM (inactive); GI50 (RXF 631): > 100 µM (inactive); GI50 (SNB-78): > 100 µM (inactive) |
| N=C(N)SCCN1CCCCC1 |  |  |  |  |  | 27.5 µM (inactive) |  |
| COc1cc(C2c3cc4c(cc3[C@@H](Nc3ccc(F)cc3)C3COC[C@H]23)OCO4)cc(OC)c1O (stereo partly drawn) |  |  |  |  |  | 1.74 µM (inactive) |  |
| O=C1NCCCC12CCCNC2=O |  | > 100 µM (inactive) | > 100 µM (inactive) | > 100 µM (inactive) | > 100 µM (inactive) |  |  |
| NCc1ccc(-c2ccc(-c3ccc(-c4ccc(CN)s4)s3)s2)s1 |  |  |  |  |  | > 100 µM (inactive) |  |
| C=C(CBr)CCCOCc1ccccc1 |  |  |  |  |  | 37.8 µM (inactive) |  |
| O=C1OCc2c1cc1cc3c(cc1c2-c1ccc2c(c1)OCO2)OCO3.O=C1OCc2cc3cc4c(cc3c(-c3ccc5c(c3)OCO5)c21)OCO4 |  |  |  |  |  | 24.5 µM (inactive) |  |
| Cc1cc2c(cc1C)[n+]([O-])c(C(=O)N1CCN(c3ccc([N+](=O)[O-])cc3)CC1)c(C)[n+]2[O-] |  |  |  |  |  | 63.2 µM (inactive) |  |
| CC(C)CCCC(C)[C@H]1CC[C@H]2[C@@H]3CC[C@H]4C[C@@H](CCC=C(c5cc(Cl)c(O)c(C(=O)O)c5)c5cc(Cl)c(O)c(C(=O)O)c5)CC[C@]4(C)[C@H]3CC[C@]12C (stereo partly drawn) |  |  |  |  |  | > 50 µM (inactive) |  |
| S=C1C=C(c2ccccc2)Sc2ccccc2N1 |  |  |  |  |  | > 100 µM (inactive) |  |
| CC(C)(C)c1cc(Cc2ccc(S(C)(=O)=O)cc2)c(O)c(C(C)(C)C)c1 | 17.5 µM (inactive) | 13.5 µM (inactive) | 15.7 µM (inactive) | 17.1 µM (inactive) | 15.2 µM (inactive) |  | GI50 (HOP-18): 22.7 µM (inactive); GI50 (SNB-78): 16.3 µM (inactive) |
| COC(=O)C1=CC2OC1(C)CCC2=O (stereo not drawn) | 80.5 µM (inactive) |  | > 100 µM (inactive) |  | > 100 µM (inactive) |  |  |
| CCc1cc(Cc2cc(CC)c(NC(=O)C(=O)CC(=O)c3sc(-c4cccnc4)nc3C)c(CC)c2)cc(CC)c1NC(=O)C(=O)CC(=O)c1sc(-c2cccnc2)nc1C |  |  |  |  |  | > 100 µM (inactive) |  |
| CCOC(=O)C(C(=O)OCC)c1ccc([N+](=O)[O-])o1 | 4.58 µM (inactive) |  | 19.1 µM (inactive) | 17.5 µM (inactive) | 17.1 µM (inactive) |  | GI50 (HOP-18): 20 µM (inactive); GI50 (SNB-78): 14 µM (inactive) |
| CC(C)(C1=NC(C(C)(C)C)CO1)C1=N[C@@H](C(C)(C)C)CO1 (stereo partly drawn) | > 100 µM (inactive) | > 100 µM (inactive) | > 100 µM (inactive) | > 100 µM (inactive) | > 100 µM (inactive) |  | GI50 (HOP-18): > 100 µM (inactive) |
| O=c1c2cc([N+](=O)[O-])ccc2nc2n1CCCCC2 |  |  |  |  |  | > 100 µM (inactive) |  |
| NS(=O)(=O)c1ccc(NNc2c3ccccc3nc3c(C(=O)Nc4ccc(S(N)(=O)=O)cc4)cccc23)cc1 |  |  |  |  |  | 6.27 µM (inactive) |  |
| O=C1CC(C(COCc2ccccc2)OCc2ccccc2)CC(=O)N1 (stereo not drawn) |  |  |  |  |  | 86.3 µM (inactive) |  |
